According to paper PMC7849018 (Antimicrobial Agents and Chemotherapy, 2021):
“Also recorded” adds a separate entry of the source. Read-outs that look alike come from different tables or passages of the source.

Tests used:
[1] = target: human DNA polymerase beta (Homo sapiens, UniProt P06746); test: Enzymatic inhibition assay; format: biochemical; conditions: read-out: IC50 DNA pol β
[2] = target: T1, human DNA polymerase gamma (Homo sapiens, UniProt P54098); test: Enzymatic inhibition assay; format: biochemical; conditions: read-out: IC50 DNA pol γ
T1 sequence (P54098 1-1239): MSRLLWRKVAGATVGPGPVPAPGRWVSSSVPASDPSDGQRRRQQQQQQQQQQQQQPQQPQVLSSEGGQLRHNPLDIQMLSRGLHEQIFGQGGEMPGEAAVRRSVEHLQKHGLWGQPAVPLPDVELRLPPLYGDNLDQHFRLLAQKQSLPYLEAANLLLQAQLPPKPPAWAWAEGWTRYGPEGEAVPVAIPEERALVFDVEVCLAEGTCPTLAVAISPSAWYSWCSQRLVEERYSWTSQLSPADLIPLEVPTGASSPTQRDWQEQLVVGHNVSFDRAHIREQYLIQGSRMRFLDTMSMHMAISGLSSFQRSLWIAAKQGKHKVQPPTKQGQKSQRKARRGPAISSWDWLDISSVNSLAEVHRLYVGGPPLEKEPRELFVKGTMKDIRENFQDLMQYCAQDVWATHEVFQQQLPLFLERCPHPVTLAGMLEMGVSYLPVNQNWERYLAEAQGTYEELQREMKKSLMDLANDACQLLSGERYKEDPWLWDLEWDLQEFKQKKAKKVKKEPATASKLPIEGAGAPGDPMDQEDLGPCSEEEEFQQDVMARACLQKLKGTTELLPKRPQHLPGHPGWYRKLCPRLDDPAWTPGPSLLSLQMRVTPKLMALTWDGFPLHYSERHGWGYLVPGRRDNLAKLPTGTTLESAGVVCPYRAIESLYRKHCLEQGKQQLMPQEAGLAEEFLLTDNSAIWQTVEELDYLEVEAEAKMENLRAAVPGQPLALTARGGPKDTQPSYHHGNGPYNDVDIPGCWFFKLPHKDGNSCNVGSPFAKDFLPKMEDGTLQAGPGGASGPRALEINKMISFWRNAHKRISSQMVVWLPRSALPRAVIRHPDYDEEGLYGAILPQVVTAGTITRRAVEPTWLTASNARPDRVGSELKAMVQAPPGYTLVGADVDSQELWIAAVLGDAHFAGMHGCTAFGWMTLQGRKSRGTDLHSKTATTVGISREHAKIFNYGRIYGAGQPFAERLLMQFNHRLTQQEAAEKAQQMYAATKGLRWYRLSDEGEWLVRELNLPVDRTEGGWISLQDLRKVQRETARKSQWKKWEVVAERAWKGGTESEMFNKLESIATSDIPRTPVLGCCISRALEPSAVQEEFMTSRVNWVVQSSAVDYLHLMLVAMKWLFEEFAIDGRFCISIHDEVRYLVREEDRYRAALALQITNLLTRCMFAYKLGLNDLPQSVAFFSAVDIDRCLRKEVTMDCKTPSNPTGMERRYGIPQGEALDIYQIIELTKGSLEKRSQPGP
T1 sequence (Q9UHN1 26-485 partner limits assumed): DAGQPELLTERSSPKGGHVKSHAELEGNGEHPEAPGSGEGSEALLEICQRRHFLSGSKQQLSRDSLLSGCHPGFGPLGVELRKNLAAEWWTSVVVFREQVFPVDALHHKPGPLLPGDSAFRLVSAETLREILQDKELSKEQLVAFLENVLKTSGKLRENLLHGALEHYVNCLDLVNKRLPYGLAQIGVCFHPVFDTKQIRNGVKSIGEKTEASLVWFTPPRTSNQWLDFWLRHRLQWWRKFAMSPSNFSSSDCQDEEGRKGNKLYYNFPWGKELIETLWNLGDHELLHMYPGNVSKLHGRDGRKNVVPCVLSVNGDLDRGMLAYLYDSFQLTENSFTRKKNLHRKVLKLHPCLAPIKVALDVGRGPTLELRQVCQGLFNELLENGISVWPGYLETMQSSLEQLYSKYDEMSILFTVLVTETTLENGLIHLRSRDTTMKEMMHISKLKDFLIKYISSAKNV

[3] = in vitro; conditions: human, CC50, Myeloid progenitors; 11- to 14-day treatment
[4] = target: human POLRMT (Homo sapiens, UniProt O00411); test: Enzymatic inhibition assay; format: biochemical; conditions: read-out: IC50 POLRMT pol
[5] = system: HepG2 cells; test: Intracellular reactive oxygen species level; format: cell-based, human
[6] = target: human mitochondrial POLRMT (Homo sapiens, UniProt O00411); test: Single nucleotide incorporation assay; format: biochemical; conditions: 500 μM nucleotide analog; relative to natural NTP at same concentration
[7] = system: mitochondrial DNA (mtDNA) in HepG2 cells; test: Mitochondrial DNA content by qPCR; format: cell-based, human; conditions: continual treatment for 10 days
[8] = system: COX-1 (mitochondrial DNA-encoded cytochrome c oxidase, complex IV) protein level; test: Mitochondrial protein synthesis assay; format: cell-based; conditions: human, PC-3 cells
[9] = Mitochondrial respiration; format: cell-based; conditions: human, PC-3 cells, 3-day treatment
[10] = Mitochondrial respiration; format: cell-based; conditions: human, HepG2 cells, 3-day treatment
[11] = Mitochondrial respiration; format: cell-based; conditions: human; for CC50 at 3 day: PHH cells (primary human hepatocytes); for CC50 at 3 days: primary human hepatocytes (PHH)
[12] = Mitochondrial respiration; format: cell-based; conditions: human, RPTEC cells, RPTECs, 3-day treatment
[13] = system: SDH-A (nuclear DNA-encoded succinate dehydrogenase, complex II) protein level; test: Mitochondrial protein synthesis assay; format: cell-based; conditions: human, PC-3 cells
[14] = system: HepG2; conditions: read-out: 5-day CC50 HepG2 cells Anaerobic (glucose)
[15] = system: PC-3; conditions: read-out: 5-day CC50 PC-3 cells Anaerobic (glucose)
[16] = in vitro; conditions: human
[17] = in vitro; conditions: human; remark: listed apart in the source
[18] = Cellular ATP alongside the mitochondrial protein synthesis assay; conditions: human, PC-3 cells
[19] = system: Stimulated PBMC; conditions: 5-day treatment
[20] = system: HepG2 galactose-adapted cell line; conditions: read-out: 5-day CC50 HepG2 cells Aerobic (galactose)
[21] = system: PC-3 galactose-adapted cell line; conditions: CC50 galactose versus glucose culture
[22] = system: SARS-CoV-2 in human airway epithelial cells (HAE); conditions: read-out: EC50 against SARS-CoV-2; cited from earlier work
[23] = cited from earlier work
[24] = cited from earlier work; remark: listed apart in the source
[25] = moderate COVID-19, cited from earlier work
[26] = hospitalized patients with COVID-19; RDV for up to 10 days; cited from earlier work
[27] = target: T2, human mitochondrial DNA Pol γ (Homo sapiens, UniProt P54098); test: Single nucleotide incorporation assay; format: biochemical; conditions: 50 μM nucleotide analog; relative to natural dNTP at same concentration
T2 sequence (P54098 1-1239): T1 sequence (P54098 1-1239)
T2 sequence (Q9UHN1 26-485 partner limits assumed): T1 sequence (Q9UHN1 26-485 partner limits assumed)

[28] = pH 7.4, 3-day CC50 Spare respiration
[29] = healthy subjects, repeat-dose study 150 mg once daily, reversible
[30] = humans, repeated dosing of 150 mg

Chain of human mitochondrial POLRMT (O00411 42-1230): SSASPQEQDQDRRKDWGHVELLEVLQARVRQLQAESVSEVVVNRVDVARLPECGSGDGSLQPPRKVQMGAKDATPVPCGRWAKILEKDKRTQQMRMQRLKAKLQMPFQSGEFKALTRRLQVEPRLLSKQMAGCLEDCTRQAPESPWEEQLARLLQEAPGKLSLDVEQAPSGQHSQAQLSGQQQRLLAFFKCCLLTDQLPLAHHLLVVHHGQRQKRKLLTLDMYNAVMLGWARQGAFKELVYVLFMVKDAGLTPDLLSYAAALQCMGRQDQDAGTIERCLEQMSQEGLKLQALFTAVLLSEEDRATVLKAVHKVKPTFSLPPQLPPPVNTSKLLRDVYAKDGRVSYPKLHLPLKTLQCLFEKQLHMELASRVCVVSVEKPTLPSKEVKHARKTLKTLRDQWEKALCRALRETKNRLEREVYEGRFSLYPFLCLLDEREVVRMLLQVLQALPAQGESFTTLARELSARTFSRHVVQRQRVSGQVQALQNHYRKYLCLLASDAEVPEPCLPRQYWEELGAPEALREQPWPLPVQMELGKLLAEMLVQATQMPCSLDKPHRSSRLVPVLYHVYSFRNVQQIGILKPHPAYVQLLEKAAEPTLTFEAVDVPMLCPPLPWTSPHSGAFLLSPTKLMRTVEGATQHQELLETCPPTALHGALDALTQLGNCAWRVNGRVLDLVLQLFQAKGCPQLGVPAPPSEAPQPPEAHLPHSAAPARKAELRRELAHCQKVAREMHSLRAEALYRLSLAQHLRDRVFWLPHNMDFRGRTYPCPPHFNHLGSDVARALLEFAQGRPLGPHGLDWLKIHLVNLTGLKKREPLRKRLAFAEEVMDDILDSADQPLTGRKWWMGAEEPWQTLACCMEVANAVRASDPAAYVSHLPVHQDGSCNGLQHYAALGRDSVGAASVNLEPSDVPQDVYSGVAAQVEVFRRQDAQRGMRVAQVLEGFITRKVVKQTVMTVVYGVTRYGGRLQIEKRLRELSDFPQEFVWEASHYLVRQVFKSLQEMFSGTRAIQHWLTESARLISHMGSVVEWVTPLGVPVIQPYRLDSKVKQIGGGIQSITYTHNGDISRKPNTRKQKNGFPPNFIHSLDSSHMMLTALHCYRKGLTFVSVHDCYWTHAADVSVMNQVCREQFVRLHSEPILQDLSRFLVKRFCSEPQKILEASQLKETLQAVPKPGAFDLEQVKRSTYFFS
Chain of human POLRMT (O00411 42-1230): as above

SMILES: Cc1cn([C@H]2CC[C@@H](COP(=O)(O)OP(=O)(O)OP(=O)(O)O)O2)c(=O)[nH]c1=O [3′dTTP]
- IC50 [1]: 1900 nM
- IC50 [2]: 1200 nM

SMILES: O=c1[nH]cc(F)c(=O)[nH]1 [5-fluorouracil, reference compound]
- CC50 [3]: 2.2 ± 0.6 µM

SMILES: Nc1nc2c(ncn2[C@@H]2O[C@H](COP(=O)(O)OP(=O)(O)OP(=O)(O)O)C[C@H]2O)c(=O)[nH]1 [3′deoxy GTP, 3′-deoxy GTP]
- IC50 [4]: 4.2 µM

SMILES: CC1=CC(=O)c2ccccc2C1=O [menadione, reference compound]
- increase in ROS levels ([5]; 30-minute incubation (100 or 200 μM)): > 3 fold

SMILES: CC(C)C(=O)OC[C@@]1(N=[N+]=[N-])O[C@@H](n2ccc(N)nc2=O)[C@H](OC(=O)C(C)C)[C@@H]1OC(=O)C(C)C [4’CN-CTP, 4′-CN-CTP]
- Rate of incorporation (% of natural dNTP or NTP), mtRNA polymerase [6]: 112% ± 10%

SMILES: N#C[C@@]1(c2ccc3c(N)ncnn23)O[C@H](CO)[C@@H](O)[C@H]1O [GS-441524]
- effect on mtDNA content (in words) [7]: overall minimal
- CC50 at 5 days [8]: > 100 µM
- CC50 at 3 day ([9]; 3-day CC50 Cellular ATP): > 100 µM
- CC50 at 3 day ([9]; 3-day CC50 Total DNA content): > 100 µM
- CC50 at 3 day [9, 28]: > 100 µM
- CC50 at 3 day ([10]; 3-day CC50 Cellular ATP): > 100 µM
- CC50 at 3 day ([10]; 3-day CC50 Total DNA content): > 100 µM
- CC50 at 3 day [10, 28]: > 100 µM
- CC50 at 3 day [11]: > 100 µM
- CC50 at 3 days [11]: > 100 µM
- CC50 at 3 days ([11]; pH 7.4): > 100 µM
- CC50 at 3 day ([12]; 3-day CC50 Cellular ATP): > 100 µM
- CC50 at 3 day ([12]; 3-day CC50 Total DNA content): > 100 µM
- CC50 at 3 day [12, 28]: > 100 µM
- CC50 at 5 days [13]: > 100 µM
- CC50 [14]: > 100 µM
- CC50 [15]: > 100 µM
- CC50 [3]: 11.7 ± 9.6 µM
- CC50 at 5 days [16]: > 100 µM
- CC50 at 5 days [17]: > 100000 nM
- CC50 at 5 days [18]: > 100 µM

SMILES: COc1nc(N)nc2c1ncn2[C@@H]1O[C@H](COP(=O)(N[C@@H](C)C(=O)OCC(C)(C)C)Oc2cccc3ccccc23)[C@@H](O)[C@@]1(C)O (some centres unmarked) [2’CMe-GTP, 2′CMe-GTP]
- Rate of incorporation (% of natural dNTP or NTP), mtRNA polymerase [6]: 92% ± 33%

SMILES: CCC(CC)COC(=O)[C@H](C)N[P@](=O)(OC[C@H]1O[C@@](C#N)(c2ccc3c(N)ncnn23)[C@H](O)[C@@H]1O)Oc1ccccc1 [RDV, Remdesivir]
- decrease in cell viability ([5]; 100 μM, 24-h incubation): 60%
- increase in ROS levels ([5]; 100 μM, 24-h incubation, vs DMSO control): 60%
- effect on ROS levels ([5]; 3.1 to 50 μM, 24-h incubation): no significant increase in ROS levels; also recorded: no effect on ROS
- effect on mtDNA content (in words) [7]: lack of dose response
- CC50 at 5 days [8]: 8.9 ± 1.1 µM
- CC50 at 3 day ([9]; 3-day CC50 Cellular ATP): 24 ± 1.4 µM
- CC50 at 3 day [9, 28]: 2.5 ± 0.1 µM
- CC50 at 3 day ([10]; 3-day CC50 Cellular ATP): 7.9 ± 0.1 µM
- CC50 at 3 day ([10]; 3-day CC50 Total DNA content): 6.3 ± 0.9 µM
- CC50 at 3 day [10, 28]: 10.6 ± 0.1 µM
- CC50 at 3 day [11]: 7.8 ± 2.2 µM
- CC50 at 3 days [11]: 13.4 ± 1.7 µM
- CC50 at 3 days ([11]; pH 7.4): 7.6 ± 1.9 µM
- CC50 at 3 day ([12]; 3-day CC50 Cellular ATP): 16.9 ± 4.1 µM
- CC50 at 3 day ([12]; 3-day CC50 Total DNA content): 14.3 ± 3.3 µM
- CC50 at 3 day [12, 28]: 7.3 ± 2.7 µM
- CC50 at 5 days [13]: 8.6 ± 1.3 µM
- CC50 [19]: 14.8 ± 5.8 µM
- CC50 [20]: 11.1 ± 1.2 µM
- enhancement of cytotoxicity by aerobic conditions [21]: 6 fold
- EC50 [22]: 9.9 nM
- treatment-emergent grade 1 or 2 ALT elevations [23, 29]: 50%
- treatment-emergent grade 1 or 2 AST elevations [23, 29]: 44%
- plasma Cmax [23, 30]: 2,720 ng/ml
- t1/2 [23, 30]: 1.11 h
- Cmax ([23]; read-out: plasma Cmax, humans, repeated dosing of 150 mg): 4.5 µM
- adverse events of elevations in ALT ([24]; 5-day RDV treatment): 6%
- adverse events of elevations in AST ([24]; 5-day RDV treatment): 5%
- adverse events of elevations in ALT ([24]; 10-day RDV treatment): 8%
- adverse events of elevations in AST ([24]; 10-day RDV treatment): 7%
- CC50 [3]: 5.1 ± 2.3 µM
- CC50 at 5 days [17]: 1400 ± 100 nM
- Grade 3 or 4 adverse events, ALT ([25]; 5-day RDV): 2%
- Grade 3 or 4 adverse events, AST ([25]; 5-day RDV): 3%
- adverse events of elevations in ALT ([25]; 5-day RDV): 34%
- adverse events of elevations in AST ([25]; 5-day RDV): 32%
- Grade 3 or 4 adverse events, ALT ([25]; 10-day RDV): 3%
- Grade 3 or 4 adverse events, AST ([25]; 10-day RDV): 1%
- adverse events of elevations in ALT ([25]; 10-day RDV): 32%
- adverse events of elevations in AST ([25]; 10-day RDV): 32%
- adverse events of increased amino transferase levels, including ALT, AST, or both [26]: 6 % of subjects
- CC50 at 5 days [18]: 11.3 ± 3.3 µM

SMILES: O=C(N[C@H](CO)[C@H](O)c1ccc([N+](=O)[O-])cc1)C(Cl)Cl [Chloramphenicol, chloramphenicol, reference compound]
- CC50 at 5 days [8]: 2.6 ± 0.6 µM
- CC50 at 3 day ([9]; 3-day CC50 Cellular ATP): > 50 µM
- CC50 at 3 day ([9]; 3-day CC50 Total DNA content): > 50 µM
- CC50 at 3 day [9, 28]: 4.8 ± 1.3 µM
- CC50 at 5 days [13]: > 25 µM
- CC50 at 5 days [18]: 14.1 ± 3.6 µM

SMILES: Nc1ncn([C@H]2C[C@H](O)[C@@H](COP(=O)(O)OP(=O)(O)OP(=O)(O)O)O2)c(=O)n1 [5-aza-2′-dCTP, 5-aza-2′-deoxyCTP]
- Rate of incorporation (% of natural dNTP or NTP), DNA polymerase γ [27]: 79% ± 8%

SMILES: [H]/N=C(/N)N/C(=N/[H])NCCc1ccccc1 [Phenformin, phenformin, reference compound]
- CC50 at 3 day [11]: 9.7 ± 4.5 µM
- CC50 at 3 days [11]: 22.1 ± 1.9 µM
- CC50 at 3 days ([11]; pH 7.4): 1.9 ± 0.5 µM
